Assay results from patent US12139492B2 (Endotarget Inc., priority 2021, dated 2024).
pIC50: −log10 of the molar value. Read-outs that look alike come from different tables or passages of the source.

Key:
BTK = BTK (Homo sapiens, UniProt Q06187); assay: Degradation of BTK protein in Namalwa cells (Western blot; DC50, Dmax); conditions: for DC50: cell line not given
JeKo-1 cells = assay: Antiproliferative effect, MTS cell viability assay, JeKo-1 cells; format: cell-based; conditions: Homo sapiens; JeKo-1 mantle cell lymphoma cells; read-out: IC50 (anti-proliferation) JeKO-1 cells
How it was run: (§1)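 MTS read-out, A490 of formazan from metabolically active cells; compound 0–10 μM (0, 0.001, 0.01, 0.1, 1, 10 μM), 72 h exposure.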

Mino cells = assay: Antiproliferative effect, MTS cell viability assay, Mino cells; format: cell-based; conditions: Homo sapiens, MINO, Mino mantle cell lymphoma cells; read-out: IC50 (anti-proliferation) Mino cells
How it was run: as §1

[1] = read-out: DC50 (BTK degradation), concentration giving 50% reduction of BTK expression level
[2] = read-out: Dmax (BTK degradation)

BTK, sequence (Q06187 whole entry): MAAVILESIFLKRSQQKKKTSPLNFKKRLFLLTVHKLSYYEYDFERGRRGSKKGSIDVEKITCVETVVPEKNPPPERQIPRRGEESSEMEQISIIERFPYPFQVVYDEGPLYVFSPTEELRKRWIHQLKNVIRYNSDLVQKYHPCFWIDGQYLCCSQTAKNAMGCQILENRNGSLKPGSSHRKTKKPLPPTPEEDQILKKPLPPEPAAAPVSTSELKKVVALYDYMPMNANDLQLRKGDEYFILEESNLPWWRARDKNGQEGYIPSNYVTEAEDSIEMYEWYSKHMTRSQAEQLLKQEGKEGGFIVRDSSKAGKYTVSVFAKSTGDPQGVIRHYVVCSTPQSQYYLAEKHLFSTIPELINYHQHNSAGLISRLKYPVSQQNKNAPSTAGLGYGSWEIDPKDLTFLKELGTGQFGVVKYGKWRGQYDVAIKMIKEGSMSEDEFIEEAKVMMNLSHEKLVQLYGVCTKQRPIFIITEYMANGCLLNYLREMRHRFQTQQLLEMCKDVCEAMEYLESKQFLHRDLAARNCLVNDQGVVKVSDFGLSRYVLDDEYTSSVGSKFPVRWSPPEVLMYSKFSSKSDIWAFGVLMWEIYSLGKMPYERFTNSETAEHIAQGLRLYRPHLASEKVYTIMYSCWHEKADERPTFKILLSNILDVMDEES

| SMILES | Dmax (BTK) | DC50 (BTK; BTK degradation) | DC50 (BTK; [1]) | Dmax (BTK; [2]) | pIC50 (JeKo-1 cells) | pIC50 (Mino cells) |
| --- | --- | --- | --- | --- | --- | --- |
| NC(=O)c1c(-c2ccc(Oc3ccccc3)cc2)nn2c1NCCC2C1CCN(CC2CCN(C(=O)N3CCC(CC4CCN(c5ccc6c(c5)C(=O)N(C5CCC(=O)NC5=O)C6=O)CC4)CC3)CC2)CC1 (stereo not drawn) [Compound 373, 7-(1-((1-(4-((1-(2-(2,6-dioxopiperidin-3-yl)-1,3-dioxoisoindolin-5-yl)piperidin-4-yl)methyl)piperidine-1-carbonyl)piperidin-4-yl)methyl)piperidin-4-yl)-2-(4-phenoxyphenyl)-4,5,6,7-tetrahydropyrazolo[1,5-a]pyrimidine-3-carboxamide] | > 75% | 10 to 50 nM | – | – | < 5.00 | 5.00 to 6.00 |
| NC(=O)c1c(-c2ccc(Oc3ccccc3)cc2)nn2c1NCC[C@H]2C1CCN(CC2CCN(C(=O)N3CCN(Cc4ccc5c(c4)CN(C4CCC(=O)NC4=O)C5=O)CC3)CC2)CC1 (stereo partly drawn) [Compound 400, (7S)-7-(1-((1-(4-((2-(2,6-dioxopiperidin-3-yl)-1-oxoisoindolin-5-yl)methyl)piperazine-1-carbonyl)piperidin-4-yl)methyl)piperidin-4-yl)-2-(4-phenoxyphenyl)-4,5,6,7-tetrahydropyrazolo[1,5-a]pyrimidine-3-carboxamide] | – | – | > 50 nM | > 50% | < 5.00 | < 5.00 |
| NC(=O)c1c(-c2ccc(Oc3ccccc3)cc2)nn2c1NCCC2C1CCN(C2CCN(CC3CCN(c4ccc5c(c4)C(=O)N(C4CCC(=O)NC4=O)C5=O)CC3)CC2)CC1 (stereo not drawn) [Compound 305, 7-(1′-((1-(2-(2,6-dioxopiperidin-3-yl)-1,3-dioxoisoindolin-5-yl)piperidin-4-yl)methyl)-[1,4′-bipiperidin]-4-yl)-2-(4-phenoxyphenyl)-4,5,6,7-tetrahydropyrazolo[1,5-a]pyrimidine-3-carboxamide] | > 90% | 10 to 50 nM | – | – | 5.00 to 6.00 | 5.00 to 6.00 |

The next lines start with results.

| Dmax (BTK) | DC50 (BTK; BTK degradation) | DC50 (BTK; [1]) | Dmax (BTK; [2]) | SMILES | pIC50 (JeKo-1 cells) | pIC50 (Mino cells) |
| --- | --- | --- | --- | --- | --- | --- |
| – | – | < 10 nM | > 90% | Nc1ncnc2c1c(-c1ccc(Oc3ccccc3)cc1)nn2C1CCN(C2CCN(CCCN3CCN(c4ccc(N5CCC(=O)NC5=O)cc4)CC3)C2)CC1 (stereo not drawn) [Compound 577, 1-(4-(4-(3-(3-(4-(4-amino-3-(4-phenoxyphenyl)-1H-pyrazolo[3,4-d]pyrimidin-1-yl)piperidin-1-yl)pyrrolidin-1-yl)propyl)piperazin-1-yl)phenyl)dihydropyrimidine-2,4(1H,3H)-dione] | 5.00 to 6.00 | 5.00 to 6.00 |
| – | – | 10 to 50 nM | > 75% | NC(=O)c1c(-c2ccc(Oc3ccccc3)cc2)nn2c1NCC[C@H]2C1CCN(CC2CCN(C(=O)N3CCC(N4CCC(c5ccc6c(c5)CN(C5CCC(=O)NC5=O)C6=O)CC4)CC3)CC2)CC1 (stereo partly drawn) [Compound 408, (7S)-7-(1-((1-(4-(2-(2,6-dioxopiperidin-3-yl)-1-oxoisoindolin-5-yl)-[1,4′-bipiperidine]-1′-carbonyl)piperidin-4-yl)methyl)piperidin-4-yl)-2-(4-phenoxyphenyl)-4,5,6,7-tetrahydropyrazolo[1,5-a]pyrimidine-3-carboxamide] | 5.00 to 6.00 | < 5.00 |
| – | – | < 10 nM | > 90% | Nc1ncnc2c1c(-c1ccc(Oc3ccccc3)cc1)nn2C1CCN(CC2CCN(CC3CCN(c4ccc(N5CCC(=O)NC5=O)cc4)CC3)C2)CC1 (stereo not drawn) [Compound 547, 1-(4-(4-((3-((4-(4-amino-3-(4-phenoxyphenyl)-1H-pyrazolo[3,4-d]pyrimidin-1-yl)piperidin-1-yl)methyl)pyrrolidin-1-yl)methyl)piperidin-1-yl)phenyl)dihydropyrimidine-2,4(1H,3H)-dione] | 5.00 to 6.00 | 5.00 to 6.00 |
